Source: patent US11498920B2, “4-(1H-imidazol-5-yl)-1H-pyrrolo[2, 3-b] pyridines for use in the treatment of leukaemias, lymphomas and solid tumors” (MASARYKOVA UNIVERZITA, priority 2018, dated 2022)

What was measured:
Assay type in all cases: cell-based
primary CLL cells = assay: Cytotoxicity, TMRE flow cytometry viability, primary CLL cells (Example II.1); settings: Homo sapiens, CLL cell, 6 hours, TMRE positive cells normalized to control, ratio to PF670462, <1 = higher cytotoxicity than PF670462, read-out: Viability of cells, Compound of formula I (100 μM), relative to PF670462 (100 μM), CLL primary cells
[1] = system: Maver-1 cells (mantle cell lymphoma); assay: Cytotoxicity, TMRE flow cytometry viability, Maver-1 cells (Example II.1); settings: Homo sapiens, Maver1, 24 hours, TMRE positive cells normalized to control, ratio to PF670462, <1 = higher cytotoxicity than PF670462, read-out: Viability of cells, Compound of formula I (100 μM), relative to PF670462 (100 μM), Maver-1 cells (mantle cell lymphoma)
BL-41 = assay: Cytotoxicity on panel of cell lines, TMRE viability (Example II.2); settings: Homo sapiens, 24 hours, mean, control = 1, read-out: cell viability relative to control, BL-41 (BL)
Procedure: (§1) The leukemia and lymphoma-derived cell lines [MEC-1 cell line (derived from chronic lymphocytic leukemia—CLL), Nalm-16 (acute lymphocytic leukemia—ALL), K562 (chronic myeloid leukemia—CML), HL-60 (acute myeloid leukemia—AML), Maver-1 and Mino (mantle cell lymphoma—MCL), BL-41 (Burkitt lymphoma—BL), WSU-NHL (follicular lymphoma—FL), SUDHL (diffuse large B-cell lymphoma—DLBCL)], primary CLL cells and nonmalignant control primary cells were cultured in suspension in flasks under the following conditions: RPMI 1640 medium (Hyclone) supplemented with 10% fetal bovine serum (FBS, Gibco) and 1% penicillin/streptomycin (Life Technologies), 37° C., 5% CO2 and 95% relative humidity, with optimal culture cell density 5×10^6 cells/mL in case of primary cells and 0.5-1×10^6 cells/mL in case of cell lines. The adherent cell lines [A375 (derived from malignant melanoma), MDA-MB-231 and MCF-7 (breast cancer), MIA-PA-CA and PANC1 (pancreatic cancer), PC3 (prostate cancer), OVCAR4 (ovarian cancer) and HEPG2 (hepatocellular carcinoma)] were cultured on plates under the same conditions using RPMI1640 or DMEM medium (Gibco) according to instructions provided by the distributor (DSMZ/ATCC).
(§2) The tested cell lines were incubated with inhibitors at 30 μM concentration or corresponding amount of solvent (DMSO, Sigma Aldrich) in standard culture conditions, seeded as 10^5 cells/500 μl per well in a 24-well plate. Experiments were performed in technical duplicates and 2-3 biological repetitions per cell line. Viability of cells was assessed after 24 hours.
(§3) Relative values are presented as a mean value, showing ratio to the effect of control. Relative value <1=lower viability than control condition.

MCF-7 = assay: as above; settings: Homo sapiens, MCF7, 24 hours, mean, control = 1, read-out: cell viability relative to control, MCF-7 (breast cancer)
Procedure: as §1, §2, §3

MEC-1 = assay: as above; settings: Homo sapiens, MEC1, 24 hours, mean, control = 1, read-out: cell viability relative to control, MEC-1 (CLL)
Procedure: as §1, §2, §3

Maver1 = assay: as above; settings: Homo sapiens, 24 hours, mean, control = 1, read-out: cell viability relative to control, Maver1 (MCL)
Procedure: as §1, §2, §3

Mino = assay: as above; settings: Homo sapiens, 24 hours, mean, control = 1, read-out: cell viability relative to control, Mino (MCL)
Procedure: as §1, §2, §3

Nalm16 = assay: as above; settings: 24 hours, mean, control = 1, read-out: cell viability relative to control, Nalm16 (ALL)
Procedure: as §1, §2, §3

SUDHL = assay: as above; settings: 24 hours, mean, control = 1, read-out: cell viability relative to control, SUDHL (DLBCL)
Procedure: as §1, §2, §3

primary CLL = assay: as above; settings: Homo sapiens, 24 hours, mean, control = 1, read-out: cell viability relative to control, primary CLL
Procedure: as §1, §2, §3

OVCAR4 = assay: as above; settings: Homo sapiens, OVCAR-4, 24 hours, mean, control = 1, read-out: cell viability relative to control, OVCAR4 (ovarian cancer)
Procedure: as §1, §2, §3

PANC1 = assay: as above; settings: Homo sapiens, PANC-1, 24 hours, mean, control = 1, read-out: cell viability relative to control, PANC1 (pancreatic cancer)
Procedure: as §1, §2, §3

A375 = assay: as above; settings: Homo sapiens, A-375, 24 hours, mean, control = 1, read-out: cell viability relative to control, A375 (melanoma)
Procedure: as §1, §2, §3

WSU-NHL = assay: as above; settings: Homo sapiens, 24 hours, mean, control = 1, read-out: cell viability relative to control, WSU-NHL (FL)
Procedure: as §1, §2, §3

HEPG2 = assay: as above; settings: Homo sapiens, 24 hours, mean, control = 1, read-out: cell viability relative to control, HEPG2 (hepatocellular carcinoma)
Procedure: as §1, §2, §3

HL60 = assay: as above; settings: Homo sapiens, HL-60, 24 hours, mean, control = 1, read-out: cell viability relative to control, HL60 (AML)
Procedure: as §1, §2, §3

MDA-MB-231 = assay: as above; settings: Homo sapiens, 24 hours, mean, control = 1, read-out: cell viability relative to control, MDA-MB-231 (breast cancer)
Procedure: as §1, §2, §3

MIA-PA-CA = assay: as above; settings: Homo sapiens, MIA PaCa-2, 24 hours, mean, control = 1, read-out: cell viability relative to control, MIA-PA-CA (pancreatic cancer)
Procedure: as §1, §2, §3

PC3 = assay: as above; settings: Homo sapiens, PC-3, 24 hours, mean, control = 1, read-out: cell viability relative to control, PC3 (prostate cancer)
Procedure: as §1, §2, §3

SMILES: Fc1ccc(-c2ncn(Cc3ccoc3)c2-c2ccnc3[nH]ccc23)cc1 [Preparative Example 23]
- viability at 100 µM (primary CLL cells): 37%
- viability at 100 µM [1]: 46%
- viability at 30 µM (BL-41): 57%
- viability at 30 µM (MCF-7): 31%
- viability at 30 µM (MEC-1): 84%
- viability at 30 µM (Maver1): 71%
- viability at 30 µM (Mino): 65%
- viability at 30 µM (Nalm16): 20%
- viability at 30 µM (SUDHL): 67%
- viability at 30 µM (primary CLL): 68%

SMILES: COCCCn1cnc(-c2ccc(F)cc2)c1-c1ccnc2[nH]ccc12 [Preparative Example 24, 4-(4-(4-fluorophenyl)-1-(3-methoxypropyl)-1H-imidazol-5-yl)-1H-pyrrolo[2,3-b]pyridine]
- viability at 100 µM (primary CLL cells): 30%
- viability at 30 µM (BL-41): 76%
- viability at 30 µM (Maver1): 72%
- viability at 30 µM (Mino): 80%
- viability at 30 µM (Nalm16): 75%
- viability at 30 µM (primary CLL): 85%

SMILES: Fc1ccc(-c2ncn(C3CCNCC3)c2-c2ccnc3[nH]ccc23)cc1 [Preparative Example 37, 4-(4-(4-fluorophenyl)-1-(piperidin-4-yl)-1H-imidazol-5-yl)-1H-pyrrolo[2,3-b]pyridine]
- viability at 100 µM (primary CLL cells): 51%
- viability at 30 µM (BL-41): 75%
- viability at 30 µM (Nalm16): 50%
- viability at 30 µM (OVCAR4): 82%
- viability at 30 µM (PANC1): 67%
- viability at 30 µM (SUDHL): 89%
- viability at 30 µM (primary CLL): 39%

SMILES: Fc1ccc(-c2ncn(-c3ccccc3)c2-c2ccnc3[nH]ccc23)cc1 [Preparative Example 47]
- viability at 100 µM (primary CLL cells): 78%
- viability at 30 µM (BL-41): 73%
- viability at 30 µM (Nalm16): 57%
- viability at 30 µM (OVCAR4): 76%
- viability at 30 µM (PANC1): 83%
- viability at 30 µM (primary CLL): 81%

SMILES: c1cc(-c2c(C3CCCCC3)ncn2C2CCCCC2)c2cc[nH]c2n1 [Preparative Example 67, 4-(1,4-dicyclohexyl-1H-imidazol-5-yl)-1H-pyrrolo[2,3-b]pyridine]
- viability at 100 µM (primary CLL cells): 66%
- viability at 100 µM [1]: 71%
- viability at 30 µM (A375): 55%
- viability at 30 µM (BL-41): 76%
- viability at 30 µM (Maver1): 73%
- viability at 30 µM (Mino): 72%
- viability at 30 µM (Nalm16): 40%
- viability at 30 µM (WSU-NHL): 84%

SMILES: CS(=O)(=O)N[C@H]1CC[C@@H](n2cnc(-c3ccc(F)cc3)c2-c2ccnc3[nH]ccc23)CC1 [Preparative Example 74, N-(cis-4-(4-(4-fluorophenyl)-5-(1H-pyrrolo[2,3-b]pyridin-4-yl)-1H-imidazol-1-yl)cyclohexyl)methanesulfonamide]
- viability at 100 µM (primary CLL cells): 73%
- viability at 100 µM [1]: 46%
- viability at 30 µM (MCF-7): 72%
- viability at 30 µM (Maver1): 84%
- viability at 30 µM (Nalm16): 78%

SMILES: Fc1ccc(-c2ncn(Cc3ccco3)c2-c2ccnc3[nH]ccc23)cc1 [Preparative Example 81, 4-(4-(4-fluorophenyl)-1-(furan-2-ylmethyl)-1H-imidazol-5-yl)-1H-pyrrolo[2,3-b]pyridine]
- viability at 100 µM (primary CLL cells): 60%
- viability at 100 µM [1]: 10%
- viability at 30 µM (HEPG2): 58%
- viability at 30 µM (MCF-7): 68%
- viability at 30 µM (Maver1): 51%
- viability at 30 µM (Mino): 37%
- viability at 30 µM (WSU-NHL): 68%
- viability at 30 µM (primary CLL): 77%

SMILES: C=CS(=O)(=O)N[C@H]1CC[C@@H](n2cnc(-c3ccc(F)cc3)c2-c2ccnc3[nH]ccc23)CC1 [Preparative Example 97]
- viability at 100 µM (primary CLL cells): 18%
- viability at 100 µM [1]: 1%
- viability at 30 µM (A375): 17%
- viability at 30 µM (BL-41): 11%
- viability at 30 µM (HEPG2): 39%
- viability at 30 µM (HL60): 68%
- viability at 30 µM (MCF-7): 28%
- viability at 30 µM (MDA-MB-231): 53%
- viability at 30 µM (MEC-1): 1%
- viability at 30 µM (MIA-PA-CA): 23%
- viability at 30 µM (Maver1): 1%
- viability at 30 µM (Mino): 0%
- viability at 30 µM (OVCAR4): 78%
- viability at 30 µM (PANC1): 50%
- viability at 30 µM (PC3): 74%
- viability at 30 µM (SUDHL): 68%
- viability at 30 µM (WSU-NHL): 2%
- viability at 30 µM (primary CLL): 51%

SMILES: Cn1cnc(Cn2cnc(-c3ccc(F)cc3)c2-c2ccnc3[nH]ccc23)n1 [Preparative Example 106, 4-(4-(4-fluorophenyl)-1-((1-methyl-1H-1,2,4-triazol-3-yl)methyl)-1H-imidazol-5-yl)-1H-pyrrolo[2,3-b]pyridine]
- viability at 100 µM [1]: 7%
- viability at 30 µM (A375): 79%
- viability at 30 µM (HEPG2): 24%
- viability at 30 µM (MCF-7): 65%
- viability at 30 µM (MIA-PA-CA): 68%
- viability at 30 µM (Maver1): 54%
- viability at 30 µM (Mino): 85%
- viability at 30 µM (OVCAR4): 89%
- viability at 30 µM (WSU-NHL): 82%

SMILES: Fc1ccc(-c2ncn(C3CCCCC3)c2-c2c(F)cnc3[nH]ccc23)cc1 [Preparative Example 147, 4-(1-cyclohexyl-4-(4-fluorophenyl)-1H-imidazol-5-yl)-5-fluoro-1H-pyrrolo[2,3-b]pyridine]
- viability at 100 µM (primary CLL cells): 8%
- viability at 100 µM [1]: 3%
- viability at 30 µM (A375): 85%
- viability at 30 µM (BL-41): 21%
- viability at 30 µM (HEPG2): 41%
- viability at 30 µM (HL60): 84%
- viability at 30 µM (MCF-7): 41%
- viability at 30 µM (MEC-1): 38%
- viability at 30 µM (MIA-PA-CA): 45%
- viability at 30 µM (Maver1): 0%
- viability at 30 µM (Mino): 1%
- viability at 30 µM (OVCAR4): 69%
- viability at 30 µM (PANC1): 67%
- viability at 30 µM (PC3): 57%
- viability at 30 µM (SUDHL): 1%
- viability at 30 µM (WSU-NHL): 38%
- viability at 30 µM (primary CLL): 37%

SMILES: Fc1ccc(-c2ncn(C3CCCCC3)c2-c2ccnc3[nH]cc(F)c23)cc1 [Preparative Example 149, 4-(1-cyclohexyl-4-(4-fluorophenyl)-1H-imidazol-5-yl)-3-fluoro-1H-pyrrolo[2,3-b]pyridine]
- viability at 100 µM (primary CLL cells): 11%
- viability at 100 µM [1]: 0%
- viability at 30 µM (BL-41): 22%
- viability at 30 µM (HEPG2): 77%
- viability at 30 µM (HL60): 79%
- viability at 30 µM (MCF-7): 65%
- viability at 30 µM (MEC-1): 33%
- viability at 30 µM (MIA-PA-CA): 87%
- viability at 30 µM (Maver1): 1%
- viability at 30 µM (Mino): 1%
- viability at 30 µM (PC3): 86%
- viability at 30 µM (SUDHL): 21%
- viability at 30 µM (WSU-NHL): 26%
- viability at 30 µM (primary CLL): 68%

SMILES: Fc1ccc(-c2ncn(C3CCCCC3)c2-c2ccnc3[nH]ccc23)cc1F [Preparative Example 173]
- viability at 100 µM (primary CLL cells): 2%
- viability at 100 µM [1]: 1%
- viability at 30 µM (BL-41): 5%
- viability at 30 µM (HEPG2): 58%
- viability at 30 µM (HL60): 77%
- viability at 30 µM (MCF-7): 52%
- viability at 30 µM (MEC-1): 9%
- viability at 30 µM (MIA-PA-CA): 74%
- viability at 30 µM (Maver1): 0%
- viability at 30 µM (Mino): 1%
- viability at 30 µM (SUDHL): 3%
- viability at 30 µM (WSU-NHL): 16%
- viability at 30 µM (primary CLL): 62%
